{"source": "patent US10184115B2", "about": "“Mutated cellobiose dehydrogenase with increased substrate specificity” (DIRECTSENS GMBH, priority 2012, dated 2019)", "molecular_target": "T1, Myriococcum thermophilum cellobiose dehydrogenase (CDH, SEQ ID NO: 1) variant W316L (Thermothelomyces myriococcoides, UniProt A9XK88, W316L)", "T1 sequence (A9XK88 22-828 W316L)": "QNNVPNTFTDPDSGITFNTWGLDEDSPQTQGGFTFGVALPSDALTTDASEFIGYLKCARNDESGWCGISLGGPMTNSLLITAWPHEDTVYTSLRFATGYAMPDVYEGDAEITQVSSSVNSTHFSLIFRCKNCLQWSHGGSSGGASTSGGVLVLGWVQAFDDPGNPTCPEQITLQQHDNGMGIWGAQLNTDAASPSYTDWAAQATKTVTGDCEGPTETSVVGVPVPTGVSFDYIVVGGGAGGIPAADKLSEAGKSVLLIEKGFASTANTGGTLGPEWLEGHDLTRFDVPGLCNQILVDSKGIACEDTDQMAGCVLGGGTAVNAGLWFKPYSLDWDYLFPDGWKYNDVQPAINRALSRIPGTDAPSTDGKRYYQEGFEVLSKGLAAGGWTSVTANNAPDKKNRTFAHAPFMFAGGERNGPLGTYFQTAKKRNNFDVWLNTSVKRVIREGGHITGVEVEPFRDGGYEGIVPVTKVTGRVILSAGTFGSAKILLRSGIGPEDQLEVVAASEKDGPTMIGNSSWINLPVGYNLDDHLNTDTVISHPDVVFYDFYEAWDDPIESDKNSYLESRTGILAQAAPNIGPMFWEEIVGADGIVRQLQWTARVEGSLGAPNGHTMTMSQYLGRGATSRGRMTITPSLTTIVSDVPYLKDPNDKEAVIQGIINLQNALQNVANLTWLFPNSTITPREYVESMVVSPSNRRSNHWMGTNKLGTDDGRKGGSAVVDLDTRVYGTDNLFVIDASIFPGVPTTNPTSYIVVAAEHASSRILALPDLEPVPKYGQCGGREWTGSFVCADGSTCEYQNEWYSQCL", "test": "Steady-state kinetics, DCIP assay: M. thermophilum CDH W316L", "format": "biochemical", "conditions": "apparent, pH 4.5, 30° C.", "experimental": "Enzyme activity was assayed at 30° C. using either the DCIP (Karapetyan et al., 2005 Journal of Biotechnology 121: 34-48) or cytochrome c (Canevascini et al., 1991, European Journal of Biochemistry 198: 43-52) as electron acceptor. […] Stock solutions of carbohydrates used for kinetic measurements were prepared in the respective buffer and allowed to stand overnight for mutarotation, while stock solutions of electron acceptors were prepared in water and immediately used. The reaction stoichiometry is 1 for the two-electron acceptor DCIP (1 mole of DCIP reduced per mole of carbohydrate oxidized), but 2 for the one-electron acceptor cytochrome c. Kinetic constants were calculated by fitting the observed data to the Henri-Michaelis-Menten equation or to the adapted model for substrate inhibition using nonlinear least-squares regression and the program SigmaPlot (Systat Software, San Jose, Calif., USA). […]\nRecombinant wild-type CDH as well as variants were produced in 1 L baffled flasks. […] Increase in activity was monitored using the DCIP and the cytochrome c enzyme assays. […]\nThe sample was loaded on a 20 mL PHE Sepharose FF column (HR26/20) equilibrated with 50 mM Na-acetate buffer pH 5.5 containing 20% ammonium sulfate. […] Fractions were tested for CDH activity and pooled according to the highest Reinheitszahl (RZ, calculated from the absorbance ratio 420 nm/280 nm). […]", "data": [{"smiles": "OC[C@H]1O[C@H](O[C@H]2[C@H](O)[C@@H](O)C(O)O[C@@H]2CO)[C@H](O)[C@@H](O)[C@@H]1O", "note": "(some centres unmarked) [Maltose, maltose]", "values": [{"measurement": "kcat/KM", "result": 2.6, "unit": "M⁻¹ s⁻¹"}, {"measurement": "kcat", "setting": "~ values only estimated by non linear regression", "result": 0.59, "unit": "s⁻¹"}]}]}
